Patent US20260207623A1, “USE OF ESTETROL IN HEPATICALLY IMPAIRED PATIENTS” (ESTETRA SRL, priority 2022, published 2026)

Assay: Phase 1 pharmacokinetic study of a single oral dose of 20 mg E4 monohydrate in female subjects with normal hepatic function and mild, moderate or severe hepatic impairment (plasma, LC-MS/MS, non-compartmental analysis)
Type: in vivo, human
Conditions: for AUC0-24 h, GM / AUC0-24 h, Mean / AUC0-24 h, Median / AUCinf, GM / AUCinf, Mean / AUCinf, Median / AUClast, GM / AUClast, Mean / AUClast, Median / Cmax, GM / Cmax, Mean / Cmax, Median / T1/2, GM / T1/2, Mean / T1/2, Median / Tmax, Median / λz, GM / λz, Mean / λz, Median: single oral dose 20 mg E4 monohydrate, plasma
Procedure: This was a Phase 1, multi-centre, open-label, PK, and safety study of a single oral dose of 20 mg E4 monohydrate in female subjects with normal hepatic function (Group 1), mild hepatic impairment (Group 2), moderate hepatic impairment (Group 3), and severe hepatic impairment (Group 4), as defined using the Child-Pugh classification at Screening.
The study consisted of an eligibility Screening period (within 28 days prior to study drug administration), an Assessment Period with in-house period and outpatient visits (including a single oral dose of 20 mg E4 on Day 1), and a follow up visit. All subjects were confined to the study site from Day-1 (the day before dosing) until Day 4 and returned to the site every day from Day 5 to Day 9. Alternatively, the subjects could stay for a prolonged in-house period in agreement with the Investigator. The follow-up visit occurred on Day 14 (+2 days).
All subjects arrived at the study site in the morning of Day-1 in a fasted state (no food for at least 8 h, water was allowed) to have the scheduled assessments performed in order to confirm eligibility as outlined in the inclusion and exclusion criteria (Section 2.3.1 and Section 2.3.2, respectively). In the morning of Day 1 following an overnight fast, the subjects received oral dosing of 20 mg E4 monohydrate and remained at the site. Study-related assessments were performed at time points indicated in the Schedule of Assessments in Table 2.
Serial blood sampling for PK assessments started on Day 1 and proceeded until Day 9 according to the Pharmacokinetic Sampling Schedule presented in Table 3.
Each enrolled subject was to receive a single oral dose of 20 mg of E4 (estetrol) as monohydrate as a film-coated tablet.
Study drug was administered to subjects in the morning after an overnight fast of at least 8 h.
Calculation of non-compartmental PK parameters were done using WinNonlin™ Professional, Version 6.3 or higher.
The primary PK parameters to be analyzed for E4 in plasma: • Cmax=maximum observed plasma concentration • AUCinf=area under the concentration-time curve (AUC) from time zero extrapolated to infinity
The analysis of E4 and the metabolites E4-3-glucuronide and E4-16-glucuronide in plasma samples were performed at the Bioanalytical Laboratory of the CRO using a validated liquid chromatography-mass spectrometry/mass spectrometry method.
Individual and mean plasma concentrations at each sampling time point for E4 are presented by listings and descriptive summary statistics including means, geometric means (GMs), medians, ranges, standard deviations (SD) and coefficients of variation (CV). Individual, mean and/or median concentrations per hepatic function group were plotted versus time on semilogarithmic scales.
PK parameters were calculated by non-compartmental analysis. PK parameters were analysed using descriptive statistics and are presented by hepatic function group.
Analysis of variance (ANOVA) were used to compare primary PK parameters of E4 (Cmax and AUCinf) between subjects with hepatic impairment and subjects with normal hepatic function in an exploratory approach, using the log-transformed value of each PK parameter as dependent variable, and the hepatic impairment group (normal, mild, moderate, and severe) as a fixed classification factor. Geometric least squares means were used to calculate the ratios of primary PK parameters for each hepatic impairment group to those in the control group, along with 90% confidence intervals (CIs).
Additionally, the impact of age and BMI on the effect of hepatic impairment were evaluated using an ANOVA model similar as the ANOVA model described above, but with the interaction between each factor and the hepatic impairment group included as an additional factor.
The relationship between log-transformed PK parameters (Cmax and AUCinf) and continuous parameters (albumin, total bilirubin, and prothrombin time) used for the Child-Pugh score was explored by a linear regression approach. […]

**Q.** Which “AUC0-24 h, GM” value (Mild hepatic impairment) does the source give for CC12CCC3c4ccc(O)cc4CCC3C1C(O)C(OC1OC(C(=O)O)C(O)C(O)C1O)C2O (stereo not shown) [E4-16-glucuronide] here?
**A.** 1.01708 µg·h/mL

**Q.** And the “AUC0-24 h, Mean” value (Mild hepatic impairment)?
**A.** 1.03891 µg·h/mL

**Q.** What about the “AUC0-24 h, Median” value (Mild hepatic impairment) of the same compound?
**A.** 1.06193 µg·h/mL

**Q.** What about the “AUCinf, GM” value (Mild hepatic impairment) of the same compound?
**A.** 1.38013 µg·h/mL

**Q.** And the “AUCinf, Mean” value (Mild hepatic impairment)?
**A.** 1.38924 µg·h/mL

**Q.** What about the “AUCinf, Median” value (Mild hepatic impairment) of the same compound?
**A.** 1.35839 µg·h/mL

**Q.** And the “AUClast, GM” value (Mild hepatic impairment)?
**A.** 1.35015 µg·h/mL

**Q.** What about the “AUClast, Mean” value (Mild hepatic impairment) of the same compound?
**A.** 1.36427 µg·h/mL

**Q.** What about the “AUClast, Median” value (Mild hepatic impairment) of the same compound?
**A.** 1.32947 µg·h/mL

**Q.** And the “Cmax, GM” value (Mild hepatic impairment)?
**A.** 0.7111 µg/mL

**Q.** And the “Cmax, Mean” value (Mild hepatic impairment)?
**A.** 0.74575 µg/mL

**Q.** And the “Cmax, Median” value (Mild hepatic impairment)?
**A.** 0.7125 µg/mL

**Q.** And the “T1/2, GM” value (Mild hepatic impairment)?
**A.** 24.080 h

**Q.** What about the “T1/2, Mean” value (Mild hepatic impairment) of the same compound?
**A.** 24.634 h

**Q.** And the “T1/2, Median” value (Mild hepatic impairment)?
**A.** 25.699 h

**Q.** What about the “Tmax, Median” value (Mild hepatic impairment) of the same compound?
**A.** 0.490 h

**Q.** And the “λz, GM” value (Mild hepatic impairment)?
**A.** 0.0300 h⁻¹

**Q.** What about the “λz, Mean” value (Mild hepatic impairment) of the same compound?
**A.** 0.0295 h⁻¹

**Q.** And the “λz, Median” value (Mild hepatic impairment)?
**A.** 0.0270 h⁻¹

**Q.** What about the “AUC0-24 h, GM” value (Moderate hepatic impairment) of the same compound?
**A.** 1.24409 µg·h/mL

**Q.** And the “AUC0-24 h, Mean” value (Moderate hepatic impairment)?
**A.** 1.2934 µg·h/mL

**Q.** And the “AUC0-24 h, Median” value (Moderate hepatic impairment)?
**A.** 1.32309 µg·h/mL

**Q.** And the “AUCinf, GM” value (Moderate hepatic impairment)?
**A.** 1.45997 µg·h/mL

**Q.** And the “AUCinf, Mean” value (Moderate hepatic impairment)?
**A.** 1.5187 µg·h/mL

**Q.** What about the “AUCinf, Median” value (Moderate hepatic impairment) of the same compound?
**A.** 1.53485 µg·h/mL

**Q.** And the “AUClast, GM” value (Moderate hepatic impairment)?
**A.** 1.37556 µg·h/mL

**Q.** And the “AUClast, Mean” value (Moderate hepatic impairment)?
**A.** 1.43597 µg·h/mL

**Q.** What about the “AUClast, Median” value (Moderate hepatic impairment) of the same compound?
**A.** 1.45915 µg·h/mL

**Q.** And the “Cmax, GM” value (Moderate hepatic impairment)?
**A.** 0.73421 µg/mL

**Q.** And the “Cmax, Mean” value (Moderate hepatic impairment)?
**A.** 0.785625 µg/mL

**Q.** And the “Cmax, Median” value (Moderate hepatic impairment)?
**A.** 0.7595 µg/mL

**Q.** What about the “T1/2, GM” value (Moderate hepatic impairment) of the same compound?
**A.** 13.050 h

**Q.** And the “T1/2, Mean” value (Moderate hepatic impairment)?
**A.** 14.217 h

**Q.** What about the “T1/2, Median” value (Moderate hepatic impairment) of the same compound?
**A.** 12.381 h

**Q.** What about the “Tmax, Median” value (Moderate hepatic impairment) of the same compound?
**A.** 0.985 h

**Q.** What about the “λz, GM” value (Moderate hepatic impairment) of the same compound?
**A.** 0.0500 h⁻¹

**Q.** And the “λz, Mean” value (Moderate hepatic impairment)?
**A.** 0.0580 h⁻¹

**Q.** What about the “λz, Median” value (Moderate hepatic impairment) of the same compound?
**A.** 0.0560 h⁻¹

**Q.** What about the “AUC0-24 h, GM” value (Normal hepatic function) of the same compound?
**A.** 0.64344 µg·h/mL

**Q.** What about the “AUC0-24 h, Mean” value (Normal hepatic function) of the same compound?
**A.** 0.67636 µg·h/mL

**Q.** And the “AUC0-24 h, Median” value (Normal hepatic function)?
**A.** 0.61315 µg·h/mL

**Q.** And the “AUCinf, GM” value (Normal hepatic function)?
**A.** 0.89629 µg·h/mL

**Q.** And the “AUCinf, Mean” value (Normal hepatic function)?
**A.** 0.94646 µg·h/mL

**Q.** What about the “AUCinf, Median” value (Normal hepatic function) of the same compound?
**A.** 0.93227 µg·h/mL

**Q.** What about the “AUClast, GM” value (Normal hepatic function) of the same compound?
**A.** 0.86785 µg·h/mL

**Q.** And the “AUClast, Mean” value (Normal hepatic function)?
**A.** 0.91986 µg·h/mL

**Q.** What about the “AUClast, Median” value (Normal hepatic function) of the same compound?
**A.** 0.89459 µg·h/mL

**Q.** And the “Cmax, GM” value (Normal hepatic function)?
**A.** 0.35311 µg/mL

**Q.** And the “Cmax, Mean” value (Normal hepatic function)?
**A.** 0.41975 µg/mL

**Q.** And the “Cmax, Median” value (Normal hepatic function)?
**A.** 0.513 µg/mL

**Q.** What about the “T1/2, GM” value (Normal hepatic function) of the same compound?
**A.** 18.220 h

**Q.** What about the “T1/2, Mean” value (Normal hepatic function) of the same compound?
**A.** 19.245 h

**Q.** What about the “T1/2, Median” value (Normal hepatic function) of the same compound?
**A.** 17.755 h

**Q.** And the “Tmax, Median” value (Normal hepatic function)?
**A.** 0.500 h

**Q.** What about the “λz, GM” value (Normal hepatic function) of the same compound?
**A.** 0.0400 h⁻¹

**Q.** What about the “λz, Mean” value (Normal hepatic function) of the same compound?
**A.** 0.0402 h⁻¹

**Q.** And the “λz, Median” value (Normal hepatic function)?
**A.** 0.0391 h⁻¹

**Q.** And the “AUC0-24 h, GM” value (Severe hepatic impairment)?
**A.** 1.97774 µg·h/mL

**Q.** And the “AUC0-24 h, Mean” value (Severe hepatic impairment)?
**A.** 2.29522 µg·h/mL

**Q.** What about the “AUC0-24 h, Median” value (Severe hepatic impairment) of the same compound?
**A.** 1.92286 µg·h/mL

**Q.** What about the “AUCinf, GM” value (Severe hepatic impairment) of the same compound?
**A.** 2.08197 µg·h/mL

**Q.** And the “AUCinf, Mean” value (Severe hepatic impairment)?
**A.** 2.46786 µg·h/mL

**Q.** And the “AUCinf, Median” value (Severe hepatic impairment)?
**A.** 1.95993 µg·h/mL

**Q.** And the “AUClast, GM” value (Severe hepatic impairment)?
**A.** 2.05713 µg·h/mL

**Q.** And the “AUClast, Mean” value (Severe hepatic impairment)?
**A.** 2.4433 µg·h/mL

**Q.** What about the “AUClast, Median” value (Severe hepatic impairment) of the same compound?
**A.** 1.95171 µg·h/mL

**Q.** And the “Cmax, GM” value (Severe hepatic impairment)?
**A.** 0.90101 µg/mL

**Q.** And the “Cmax, Mean” value (Severe hepatic impairment)?
**A.** 0.952625 µg/mL

**Q.** And the “Cmax, Median” value (Severe hepatic impairment)?
**A.** 0.894 µg/mL

**Q.** What about the “T1/2, GM” value (Severe hepatic impairment) of the same compound?
**A.** 8.450 h

**Q.** What about the “T1/2, Mean” value (Severe hepatic impairment) of the same compound?
**A.** 10.103 h

**Q.** What about the “T1/2, Median” value (Severe hepatic impairment) of the same compound?
**A.** 8.542 h

**Q.** And the “Tmax, Median” value (Severe hepatic impairment)?
**A.** 0.500 h

**Q.** And the “λz, GM” value (Severe hepatic impairment)?
**A.** 0.0800 h⁻¹

**Q.** And the “λz, Mean” value (Severe hepatic impairment)?
**A.** 0.0995 h⁻¹

**Q.** And the “λz, Median” value (Severe hepatic impairment)?
**A.** 0.0882 h⁻¹

**Q.** What about the “time to primary peak of GM plasma concentrations” value (all groups) of the same compound?
**A.** ≤ 1 h

**Q.** What about the “time post dose until which concentrations remained above LLOQ in at least half of the subjects” value (mild hepatic impairment) of the same compound?
**A.** 96 h

**Q.** What about the “time post dose until which concentrations remained above LLOQ in at least half of the subjects” value (moderate hepatic impairment) of the same compound?
**A.** 72 h

**Q.** And the “time post dose until which concentrations remained above LLOQ in at least half of the subjects” value (normal hepatic function)?
**A.** 96 h

**Q.** What about the “time post dose until which concentrations remained above LLOQ in at least half of the subjects” value (severe hepatic impairment) of the same compound?
**A.** 48 h

**Q.** And the “Maximum value of AUC0-24 h, severe hepatic impairment compared with control group” value (severe vs control group)?
**A.** ~ 5 fold

**Q.** And the “Maximum value of AUCinf, severe hepatic impairment compared with control group” value (severe vs control group)?
**A.** ~ 4 fold

**Q.** What about the “Maximum value of AUClast, severe hepatic impairment compared with control group” value (severe vs control group) of the same compound?
**A.** ~ 4 fold

**Q.** What about the “Maximum value of Cmax, severe hepatic impairment compared with control group” value (severe vs control group) of the same compound?
**A.** ~ 2 fold
